Consider ten molecules from EP4238971A1, “SUBSTITUTED ISOXAZOLINE DERIVATIVES” (BASF SE, priority 2022, dated 2023).

Where two headings read alike, the source gives them in different places.

Holding throughout (format): in vivo
One series concerns Plutella xylostella. The series is described as follows: Diamond back moth (Plutella xylostella), cabbage leaf disc dip test. The settings on record: for mortality at 300 ppm: Plutella xylostella, foliar, read-out: mortality in comparison with untreated controls. The procedure:
B.5. Diamond back moth (Plutella xylostella)
The active compound was dissolved at the desired concentration in a mixture of 1:1 (vol:vol) distilled water: acetone. Surfactant (Kinetic) was added at a rate of 0.01% (vol/vol). The test solution was prepared at the day of use. Cabbage leaf discs (60mm in diameter) were dipped in test solution and air-dried. Treated leaves were placed in petri dishes lined with moistened filter paper and inoculated with ten 3rd instar larvae. Mortality was recorded 72 hours after treatment. Feeding damages were also recorded using a scale of 0-100%.

In a further series the test system is Dichromothrips corbetti. Put plainly: Orchid thrips (Dichromothrips corbetti), floral-immersion technique. The settings on record: for mortality at 300 ppm: Dichromothrips corbetti, read-out: mortality in comparison with untreated controls. On the procedure: B.6. Orchid thrips (Dichromothrips corbetti)
Dichromothrips corbetti adults used for bioassay were obtained from a colony maintained continuously under laboratory conditions. For testing purposes, the test compound was diluted in a 1:1 mixture of acetone:water (vol:vol), plus Kinetic at a rate of 0.01% v/v.
Thrips potency of each compound was evaluated by using a floral-immersion technique. Each orchid petal was dipped into treatment solution and allowed to dry in Petri dishes. Treated petals were placed into individual re-sealable plastic along with about 20 adult thrips. All test arenas were held under dark condition and a temperature of about 28°C for duration of the assay. The percent mortality was recorded 72 hours after treatment.

The next series concerns Spodoptera eridania. Put plainly: Southern armyworm (Spodoptera eridania), 2nd instar larvae, sprayed lima bean plants. As to conditions: for mortality in comparison with untreated controls: 300ppm, 2nd instar larvae, assessed 4 days after treatment; for mortality at 300 ppm: Spodoptera eridania, 96 h, read-out: mortality in comparison with untreated controls. On the procedure:
B.7. Southern armyworm (Spodoptera eridania), 2nd instar larvae
The active compounds were formulated by a Tecan liquid handler in 100% cyclohexanone as a 10'000 ppm solution supplied in tubes. The 10'000 ppm solution was serially diluted in 100% cyclohexanone to make interim solutions. These served as stock solutions for which final dilutions were made by the Tecan in 50% acetone:50% water (v/v) into 10 or 20ml glass vials. A nonionic surfactant (Kinetic®) was included in the solution at a volume of 0.01% (v/v). The vials were then inserted into an automated electrostatic sprayer equipped with an atomizing nozzle for application to plants/insects. Lima bean plants (variety Sieva) were grown 2 plants to a pot and selected for treatment at the 1st true leaf stage. Test solutions were sprayed onto the foliage by an automated electrostatic plant sprayer equipped with an atomizing spray nozzle. The plants were dried in the sprayer fume hood and then removed from the sprayer. Each pot was placed into perforated plastic bags with a zip closure. Ten to 11 armyworm larvae were placed into the bag and the bags zipped closed. Test plants were maintained in a growth room at about 25°C and about 20-40% relative humidity for 4 days, avoiding direct exposure to fluorescent light (14:10 light:dark photo-period) to prevent trapping of heat inside the bags. Mortality and reduced feeding were assessed 4 days after treatment, compared to untreated control plants.

The test system of a further series is Anthonomus grandis. Put plainly: Boll weevil (Anthonomus grandis) control, insect diet in 96-well microtiter plates. As to conditions: for mortality in comparison with untreated controls: 2500ppm; for mortality at 2500 ppm: Anthonomus grandis, 120 h, read-out: mortality in comparison with untreated controls. On the procedure: (§1) If not otherwise specified, the test solutions were prepared as follows: The active compound was dissolved at the desired concentration in a mixture of 1:1 (vol:vol) distilled water:acetone. The test solution was prepared at the day of use.
(§2) Test solutions were prepared in general at a concentration of 2500ppm (wt/vol).
B.1. Boll weevil (Anthonomus grandis)
For evaluating control of boll weevil, the test unit consisted of 96-well-microtiter plates containing an insect diet and 5-10 A. grandis eggs.
The compounds were formulated using a solution containing 75% v/v water and 25% v/v DMSO. Different concentrations of formulated compounds were sprayed onto the insect diet at 5µl, using a custom-built micro atomizer, at two replications.
After application, microtiter plates were incubated at about 25 ± 1°C and about 75 ± 5 % relative humidity for 5 days. Egg and larval mortality were then visually assessed.

Another series has as its system Myzus persicae. Put plainly: Green peach aphid (Myzus persicae), mixed life stages, systemic test via artificial diet under membrane. As to conditions: for mortality at 2500 ppm: Myzus persicae, 72 h, read-out: mortality in comparison with untreated controls. The procedure:
as §1, §2
B.2. Green peach aphid (Myzus persicae) (mixed life stages)
For evaluating control of Green Peach Aphid through systemic means the test unit consisted of 96-well-microtiter plates containing liquid artificial diet under an artificial membrane. The compounds were formulated using a solution containing 75% v/v water and 25% v/v DMSO. Different concentrations of formulated compounds were pipetted into the aphid diet, using a custom-built pipette, at two replications. After application, 5 - 8 adult aphids were placed on the artificial membrane inside the microtiter plate wells. The aphids were then allowed to suck on the treated aphid diet and incubated at about 23 ± 1°C and about 50 ± 5 % relative humidity for 3 days. Aphid mortality and fecundity was then visually assessed.

Another series has as its system Heliothis virescens. Put plainly: Tobacco budworm (Heliothis virescens) control, insect diet in 96-well microtiter plates. As to conditions: for mortality at 2500 ppm: Heliothis virescens, 120 h, read-out: mortality in comparison with untreated controls. The procedure:
as §1, §2
B.3. Tobacco budworm (Heliothis virescens)
For evaluating control of Tobacco Budworm, the test unit consisted of 96-well-microtiter plates containing an insect diet and 15-25 H. virescens eggs. The compounds were formulated using a solution containing 75% v/v water and 25% v/v DMSO. Different concentrations of formulated compounds were sprayed onto the insect diet at 10µl, using a custom-built micro atomizer, at two replications. After application, microtiter plates were incubated at about 28 ± 1°C and about 80 ± 5 % relative humidity for 5 days. Egg and larval mortality was then visually assessed.

For the next series, the system named is Aedes aegypti. The series is described as follows: whole plant or invertebrate. The settings on record: larval mortality visually assessed after 2 days; for mortality in comparison with untreated controls: 2500ppm; for mortality at 2500 ppm: Aedes aegypti, 48 h, read-out: mortality in comparison with untreated controls. The procedure:
as §1, §2
B.4. Yellow fever mosquito (Aedes aegypti)
For evaluating control of Yellow Fever Mosquito, the test unit consisted of 96-well-microtiter plates containing 200µl of tap water per well and 5-15 freshly hatched A. aegypti larvae. The active compounds were formulated using a solution containing 75% (v/v) water and 25% (v/v) DMSO. Different concentrations of formulated compounds or mixtures were sprayed onto the insect diet at 2.5µl, using a custom-built micro atomizer, at two replications.
After application, microtiter plates were incubated at 28 ± 1°C, 80 ± 5 % RH for 2 days. Larval mortality was then visually assessed.

[1] abbreviates: 300ppm, 3rd instar larvae, mortality recorded 72 hours after treatment.
Where [2] appears, read: 300ppm, adult thrips, mortality recorded 72 hours after treatment.
Where [3] appears, read: egg and larval mortality visually assessed after 5 days.
The mark [4] stands for this setting: 2500ppm, aphid mortality visually assessed after 3 days.
[5] abbreviates: 2500ppm, egg and larval mortality visually assessed after 5 days.

Consider “N-[4-chloro-3-[4-(trifluoromethyl)pyrazol-1-yl]phenyl]-5-(3,5-dichloro-4-fluoro-phenyl)-N-(methoxymethyl)-5-(trifluoromethyl)-4H-isoxazol-3-amine [I-23]”, for which the “mortality in comparison with untreated controls” value (shortened to “mortality in comparison”) in the series on Plutella xylostella (setting [1]), in the series on Dichromothrips corbetti (setting [2]) and with Spodoptera eridania was “at least 75%” each time.

With `N#Cc1ccc(NC2=NOC(c3ccc(F)c(Cl)c3)(C(F)(F)F)C2)cc1-n1cncn1` (centres unmarked) [I-6], the “mortality in comparison” value in the series with Anthonomus grandis (setting [3]), in the series with Myzus persicae (setting [4]), in the series on Heliothis virescens (setting [5]), with Aedes aegypti, with Plutella xylostella (setting [1]) and in the series with Dichromothrips corbetti (setting [2]) was “at least 75%” in each case. Besides, the “mortality in comparison” value in the series with Spodoptera eridania was “at least 75%”.

In the case of `N#Cc1ccc(NC2=NOC(c3cc(Cl)cc(Cl)c3)(C(F)(F)F)C2)cc1-n1cncn1` (centres unmarked) [I-1], the “mortality in comparison” value in the series with Anthonomus grandis (setting [3]), in the series with Myzus persicae (setting [4]), in the series on Heliothis virescens (setting [5]), with Aedes aegypti, with Plutella xylostella (setting [1]) and in the series on Dichromothrips corbetti (setting [2]) was “at least 75%” throughout. Besides, the “mortality in comparison” value with Spodoptera eridania was “at least 75%”.

As to `N#Cc1ccc(NC2=NOC(c3cc(Cl)c(F)c(Cl)c3)(C(F)(F)F)C2)cc1-n1cncn1` (centres unmarked) [I-4, 4-[[5-(3,5-dichloro-4-fluoro-phenyl)-5-(trifluoromethyl)-4H-isoxazol-3-yl]amino]-2-(1,2,4-triazol-1-yl)benzonitrile], the mortality at 2500 ppm with Anthonomus grandis, in the series with Myzus persicae, with Heliothis virescens and in the series with Aedes aegypti was not below 75% throughout. Besides, the mortality at 300 ppm with Plutella xylostella (72 h), with Dichromothrips corbetti (72 h) and in the series on Spodoptera eridania was not below 75% throughout.

With `N#Cc1ccc(N(CC2CC2)C2=NOC(c3ccc(F)c(Cl)c3)(C(F)(F)F)C2)cc1-n1cncn1` (centres unmarked) [I-11], the “mortality in comparison” value in the series with Anthonomus grandis (setting [3]), in the series with Myzus persicae (setting [4]), with Heliothis virescens (setting [5]), in the series with Aedes aegypti, in the series with Plutella xylostella (setting [1]) and in the series on Dichromothrips corbetti (setting [2]) was “at least 75%” throughout. Moreover, in the series on Spodoptera eridania, the “mortality in comparison” value is on record as “at least 75%”.

Take `CCN(C1=NOC(c2cc(Cl)c(F)c(Cl)c2)(C(F)(F)F)C1)c1ccc(C#N)c(-n2cncn2)c1` (centres unmarked) [I-20, 4-[[5-(3,5-dichloro-4-fluoro-phenyl)-5-(trifluoromethyl)-4H-isoxazol-3-yl]-ethyl-amino]-2-(1,2,4-triazol-1-yl)benzonitrile]: the mortality at 2500 ppm in the series with Anthonomus grandis, in the series on Heliothis virescens and in the series on Aedes aegypti was not below 75% throughout. Besides, the mortality at 300 ppm in the series with Plutella xylostella (72 h), in the series on Dichromothrips corbetti (72 h) and in the series on Spodoptera eridania was not below 75% in each case.

As for `COCN(C1=NOC(c2cc(Cl)c(F)c(Cl)c2)(C(F)(F)F)C1)c1ccc(C#N)c(-n2cncn2)c1` (centres unmarked) [I-22], the “mortality in comparison” value in the series with Plutella xylostella (setting [1]) and in the series on Dichromothrips corbetti (setting [2]) was “at least 75%” throughout.

As to `O=C(NCC(F)(F)F)c1cnn(-c2cc(NC3=NOC(c4cc(Cl)c(F)c(Cl)c4)(C(F)(F)F)C3)ccc2Cl)c1` (centres unmarked) [I-18, 1-[2-chloro-5-[[5-(3,5-dichloro-4-fluoro-phenyl)-5-(trifluoromethyl)-4H-isoxazol-3-yl]amino]phenyl]-N-(2,2,2-trifluoroethyl)pyrazole-4-carboxamide], the mortality at 2500 ppm in the series on Anthonomus grandis (2500 ppm, egg and larval mortality visually assessed after 5 days) was not below 75%; in the series on Myzus persicae (setting [4]), not below 75%; in the series on Heliothis virescens (setting [5]), not below 75%. For the same molecule, the mortality at 300 ppm in the series with Plutella xylostella (setting [1]) and with Dichromothrips corbetti (setting [2]) was not below 75% throughout.

For the molecule `Fc1c(Cl)cc(C2(C(F)(F)F)CC(Nc3ccc(Cl)c(-n4cnc(C(F)(F)F)c4)c3)=NO2)cc1Cl` (centres unmarked) [I-16, N-[4-chloro-3-[4-(trifluoromethyl)imidazol-1-yl]phenyl]-5-(3,5-dichloro-4-fluoro-phenyl)-5-(trifluoromethyl)-4H-isoxazol-3-amine], the mortality at 2500 ppm in the series on Anthonomus grandis, in the series with Myzus persicae, in the series with Heliothis virescens and in the series on Aedes aegypti was not below 75% each time. The mortality at 300 ppm in the series on Plutella xylostella (72 h) and in the series with Dichromothrips corbetti (72 h) was not below 75% in each case.

`CCOC(=O)N(C1=NOC(c2cc(Cl)c(F)c(Cl)c2)(C(F)(F)F)C1)c1ccc(Cl)c(-n2cnc(C(F)(F)F)c2)c1` (centres unmarked) [I-26, ethyl N-[4-chloro-3-[4-(trifluoromethyl)imidazol-1-yl]phenyl]-N-[5-(3,5-dichloro-4-fluoro-phenyl)-5-(trifluoromethyl)-4H-isoxazol-3-yl]carbamate]: the mortality at 2500 ppm with Anthonomus grandis, in the series with Heliothis virescens and in the series with Aedes aegypti was not below 75% in each case. In addition, the mortality at 300 ppm in the series on Plutella xylostella (72 h), with Dichromothrips corbetti (72 h) and in the series on Spodoptera eridania was not below 75% each time.

In general, mortality refers to the share of the test organisms that died.
